Data from patent US20220411811A1, “SYNTHETIC TOOLKIT FOR PLANT TRANSFORMATION” (priority 2021, published 2022).

Tested on: A. tumefaciens NTL4
Format: cell-based, Agrobacterium tumefaciens
Conditions: for highest expression level (green fluorescence intensity, sfgfp reporter): highest induction concentration 10^3 μM; for basal expression level (green fluorescence intensity, sfgfp reporter): lowest induction concentration 10^−3 μM
Protocol: GFP measurement. An inoculum of A. tumefaciens was grown overnight to stationary phase and then transferred to fresh media at a 1:100 dilution. The new inocula were added with inducers to a final concentration of 1×10^−3 to 1×10^3 μmol/ml when their optical density at 600 nm (OD600) reached 0.5. After 6 h of incubation, cells were collected and resuspended in 1×PBS buffer. Then 100 μL of suitably diluted cultures were added into 96-well microtiter plates. OD600 and relative green fluorescence were measured by a BioTek® microplate reader H1. Congo red plate assay. The dye was dissolved in ddH2O at 20 mg ml^−1 and passed through 0.2 μm filters immediately. Four ml of filtered Congo Red was added per L (final concentration: 80 μg/ml) to generate LB-CR agar medium. The overnight cultured cultures were diluted to an OD600 of 1.0. 10 μl cultures were plated on LB-CR agar with appropriate antibiotics, followed by incubation at 30° C. for 24 hours.
A reliable induction system is required to achieve precise control of gene expression. […] An ori from the broad host-range plasmid pBBR1, which propagates in both E. coli and A. tumefaciens, was utilized for the origin of replication (Szpirer et al., J Bacteriol. 183:2101-2110, 2001). To evaluate the performance of these inducible systems, a green fluorescence protein gene (sfgfp) was utilized as a reporter gene, and placed under the control of the corresponding inducible promoters, Ptac, Pcym, Pvan, PBAD, Pug and Psal, respectively. The repressor genes of the inducible systems (lacI, cymR, vanR, araE, ttgR and nahR) were driven by a common constitutive promoter (Pcon). The resulting inducible “expression circuits” were transformed into A. tumefaciens NTL4.
To evaluate these induction systems, green fluorescence intensities of cells transformed with the plasmids were measured at various concentrations of inducers, ranging from 10^−3 to 10^3 μM.

SMILES	highest expression level (green fluorescence intensity, sfgfp reporter)	basal expression level (green fluorescence intensity, sfgfp reporter)
CC(C)S[C@@H]1O[C@H](CO)[C@H](O)[C@H](O)[C@H]1O [IPTG, β-d-1-thiogalactopyranoside]	5.2×10^5	6.6×10^4
O=C1C[C@@H](c2ccc(O)cc2)Oc2cc(O)cc(O)c21 [Nar, naringenin]	1.2×10^4	1.8×10^2
O=C[C@@H](O)[C@H](O)[C@H](O)CO [Ara, arabinose]	1.8×10^3	5.5×10^2
COc1cc(C(=O)O)ccc1O [Van, vanillic acid]	7.7×10^4	3.1×10^2
CC(C)c1ccc(C(=O)O)cc1 [Cum, cumic acid]	3×10^4	1.4×10^2
